Assay results as given in patent US20220112149A1, “DRUG DESIGN METHOD ASSOCIATED WITH NATURAL PRODUCTS, PENTACYCLIC TRITERPENOID COMPOUND, PREPARATION METHOD AND APPLICATIONS THEREOF” (Huazhong Agricultural University, priority 2020, published 2022).

Assays:
[1] = tested on: ICAM-1 expression in HMEC-1 cells; test: LPS-induced ICAM-1 expression in HMEC-1 cells, flow cytometry; format: cell-based, human
Experimental: (3) Screening candidate molecules with the strongest ICAM-1 inhibitory activity by simulating the physiological model of inflammation that human microvascular endothelial cells (HMEC-1) expressing cell adhesion molecules (ICAM-1) mediate lymphocytes to penetrate blood vessels to infiltrate the damaged tissues. The specific steps are as follows:
(§1) 1) Culture of HMEC-1 cells: HMEC-1 cells are cultured in MCDB131 medium (U.S. Sigma) that contain 10% fetal bovine serum (FBS, Zhejiang Tianhang Biotechnology Co., Ltd.), double antibody (100 U/mL penicillin and 100 μg/mL streptomycin), 1 μg/mL hydrocortisone (Sangon Biotech (Shanghai) Co., Ltd.) and 10 ng/mL human recombinant growth factor (hEGF, Sangon Biotech (Shanghai) Co., Ltd.) at 37° C., 5% CO2, and 100% RH.
2) HMEC-1 cells are inoculated into a 24-well plate, and cultured in a cell incubator at 37° C., 5% CO2, and 100% RH. When the cells grow to 80% abundance, different concentrations of drugs are added for 3 h (1 μM Celastrol as a positive control drug). At the end of treatment, 1 μg/mL LPS is added to activate the NF-κB signaling pathway for 12 hours. After activation, the supernatant medium is discarded, and washed three times with PBS, and 100 μL of 0.25% pancreatin (containing 0.5 mM EDTA) is added to digest in a 37° C. incubator for 3 min. When most of cells are shed, 150 μL of MCDB131 complete medium is added to terminate the digestion, shaken for 3 min, then cells are transferred to a V-shaped 96-well plate (Corning), centrifuged at 4° C., 3000 rpm for 3 min to precipitate cells. Then the supernatant medium is discarded, 100 μL of pH=7.4 buffer A (PBS+0.5% BSA+1 mM MgCl2) is added to each well, to wash once, centrifuged at 4° C., 3000 rpm for 3 min, and the buffer A is aspirated. To each well, 100 μL of PBS solution containing 5% bovine serum albumin is added, and shaken and blocked at 120 rpm for 30 min at room temperature; after blocking, centrifuged at 4° C. and 2000 rpm for 3 min, and the supernatant is discarded, 20 μl of buffer A containing 5 μg/mL of primary antibody anti-ICAM-1 antibody LB-2, shaken and incubated at room temperature at 120 rpm for 1 h, using the buffer A without adding anti-ICAM-1 antibody LB-2 as the negative control. By detecting anti-ICAM-1 fluorescence value by flow cytometry, the expression of ICAM-1 protein in HMEC-1 cells is detected indirectly. Three duplicate wells are established for each concentration. PBS is set as a blank control, 1 uM of Celastrol is set as a positive control, to analyze the inhibitory effect of different concentrations of drugs on the expression level of ICAM-1.
as §1, with “U/ml” for “U/mL”, “μg/ml” for “μg/mL”, “Biotech)” for “Biotech (Shanghai) Co., Ltd.)”, “ng/ml” for “ng/mL”
HMEC-1 cells are inoculated into a 24-well plate, and cultured in a cell incubator at 37° C., 5% CO2, and 100% RH. When the cells grow to 80% abundance, different concentrations of drugs are added for 3 h (1 μM Celastrol as a positive control drug). At the end of treatment, 1 μg/mL LPS is added to activate the NF-κB signaling pathway for 12 hours. After activation, the supernatant medium is discarded, and washed three times with PBS, and 100 μL of 0.25% pancreatin (containing 0.5 mM EDTA) is added to digest in a 37° C. incubator for 3 min. When most of cells are shed, 150 μL of MCDB131 complete medium is added to terminate the digestion, shaken for 3 min, then cells are transferred to a V-shaped 96-well plate (Corning), centrifuged at 4° C., 3000 rpm for 3 min to precipitate cells. Then the supernatant medium is discarded, 100 μL of pH=7.4 buffer A (PBS+0.5% BSA+1 mM MgCl2) is added to each well, to wash once, centrifuged at 4° C., 3000 rpm for 3 min, and the buffer A is aspirated. […]

[2] = tested on: Leptin receptor-deficient db/db mice; test: GA-02 in db/db mice, intraperitoneal; format: in vivo; settings: 20 mg/kg i.p., 14 days
Experimental: Eight-week-old male ob/ob and db/db mice are adapted to the environment under normal conditions for one week. The animals are grouped according to the body weight and blood glucose, 2 cages in each group, 5 animals in each cage. Mice are acclimatized with the vehicle for 3 days in the experimental group (25 μL DMSO/day) and are injected with drugs by intraperitoneal injection (20 mg/kg; 25 μL per injection). Mice in the control group are injected with the same volume of vehicle. The administration starts from 18:00 every day for 14 consecutive days. The body weight and food intake of mice are recorded every day.

[3] = tested on: obese mice of about 45 g; test: GA-02 intragastric administration in obese mice; format: in vivo; settings: 40 mg/kg intragastric, two weeks
Experimental: The lean mice of about 25 g, mildly obese mice of weighing about 30 g, and obese mice of about 45 g are given blank vehicle and high-dose GA-02 (40 mg/kg) by intragastric administration, respectively.

CC1(C(=O)O)CCC2(C)CCC3(C)C(=CC(=O)C4C5(C)C=C(O)C(=O)C(C)(C)C5CCC43C)C2C1 (centres unmarked) [GA-02, 3,11-dicarbonyl-1,12-diene-2-hydroxy-oleanane-30 carboxylic acid]
anti-inflammatory activity compared with reference compounds [1]: effectively improved compared with 18β-glycyrrhetinic acid | anti-inflammatory activity, times lower than that of Celastrol [1]: 10 times | ICAM-1 inhibitory activity compared with Celastrol ([1]; 10 μM): equivalent to 1 μM Celastrol | ICAM-1 inhibitory activity, concentration dependence ([1]; different concentrations): concentration-dependent ICAM-1 inhibitory activity | body weight increase [2]: 15% | food intakes compared with the vehicle control group [2]: do not change significantly | average daily food intake reduced by [3]: 50% | body weight reduced by [3]: 21%
